According to US5358951A, “Angiotensin II receptor blocking 2, 3, 6 substituted quinazolinones” (American Cyanamid Company, priority 1993, dated 1994):

Tested on: vasopressor response of angiotensin II
Assay: AII Challenge: antagonism of angiotensin II vasopressor response
Assay type: in vivo
Conditions: for inhibition in vivo at 3 mg/kg / inhibition in vivo at 5 mg/kg: Rattus norvegicus; for inhibition in vivo at 3 mg/kg: iv; for inhibition in vivo at 5 mg/kg: po
In short: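 Percent antagonism is based on the systolic blood pressure rise (mmHg) to i.v. angiotensin II at 0.05 and 0.1 ug/kg. Each rat's own predose response was taken as 100%. Challenges were repeated from 30 to 300 min after i.v., i.p. or oral compound in cannulated conscious male SHR, 16-20 weeks old.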

## CCCCc1nc2ccc(C3(C)CC4c5ccccc5CCN4O3)cc2c(=O)n1Cc1ccc(-c2ccccc2-c2nnn[nH]2)cc1 (stereo not drawn) [Example 64, Cis and Trans-2-Butyl-6-(1,5,6,10b-tetrahydro-2-methyl-2H-isoxazolo[3,2-a]isoquinolin-2-yl)-3-[[2'-(1H-tetrazol-5-yl][1,1'-biphenyl]-4-yl]methyl]-4(3H)-quinazolinone]
3 mg/kg I.V., AII 0.05 mcg/kg IV, 30 min post dose
  Response Average Change: 2.5 mmHg
3 mg/kg I.V., AII 0.05 mcg/kg IV, 60 min post dose
  Response Average Change: 2.5 mmHg
3 mg/kg I.V., AII 0.05 mcg/kg IV, 90 min post dose
  Response Average Change: 7.5 mmHg
3 mg/kg I.V., AII 0.05 mcg/kg IV, 180 min post dose
  Response Average Change: 7.5 mmHg
3 mg/kg I.V., AII 0.05 mcg/kg IV, 240 min post dose
  Response Average Change: 18 mmHg
3 mg/kg I.V., AII 0.05 mcg/kg IV, 300 min post dose
  Response Average Change: 7.5 mmHg
3 mg/kg I.V., AII 0.1 mcg/kg IV, 30 min post dose
  Response Average Change: 5 mmHg
3 mg/kg I.V., AII 0.1 mcg/kg IV, 60 min post dose
  Response Average Change: 5 mmHg
3 mg/kg I.V., AII 0.1 mcg/kg IV, 90 min post dose
  Response Average Change: 7.5 mmHg
3 mg/kg I.V., AII 0.1 mcg/kg IV, 120 min post dose
  Response Average Change: 10 mmHg
3 mg/kg I.V., AII 0.1 mcg/kg IV, 180 min post dose
  Response Average Change: 11 mmHg
3 mg/kg I.V., AII 0.1 mcg/kg IV, 240 min post dose
  Response Average Change: 12.5 mmHg
3 mg/kg I.V., AII 0.1 mcg/kg IV, 300 min post dose
  Response Average Change: 18.5 mmHg
3 mg/kg I.V., AII 0.5 mcg/kg IV, 120 min post dose
  Response Average Change: 5 mmHg
5 mg/kg P.O., AII 0.05 mcg/kg IV, 30 min post dose
  Response Average Change: 15 mmHg
5 mg/kg P.O., AII 0.05 mcg/kg IV, 60 min post dose
  Response Average Change: 18.5 mmHg
5 mg/kg P.O., AII 0.05 mcg/kg IV, 120 min post dose
  Response Average Change: 20 mmHg
5 mg/kg P.O., AII 0.05 mcg/kg IV, 180 min post dose
  Response Average Change: 17.5 mmHg
5 mg/kg P.O., AII 0.1 mcg/kg IV, 30 min post dose
  Response Average Change: 27.5 mmHg
5 mg/kg P.O., AII 0.1 mcg/kg IV, 60 min post dose
  Response Average Change: 23.5 mmHg
5 mg/kg P.O., AII 0.1 mcg/kg IV, 90 min post dose
  Response Average Change: 22 mmHg
5 mg/kg P.O., AII 0.1 mcg/kg IV, 120 min post dose
  Response Average Change: 20 mmHg
5 mg/kg P.O., AII 0.1 mcg/kg IV, 180 min post dose
  Response Average Change: 24 mmHg
5 mg/kg P.O., AII 0.5 mcg/kg IV, 90 min post dose
  Response Average Change: 20 mmHg
0.5 h, 3 mg/kg I.V., AII 0.05 mcg/kg IV, 30 min post dose
  inhibition in vivo at 3 mg/kg: 93%
0.5 h, 3 mg/kg I.V., AII 0.1 mcg/kg IV, 30 min post dose
  inhibition in vivo at 3 mg/kg: 91%
1 h, 3 mg/kg I.V., AII 0.05 mcg/kg IV, 60 min post dose
  inhibition in vivo at 3 mg/kg: 93%
1 h, 3 mg/kg I.V., AII 0.1 mcg/kg IV, 60 min post dose
  inhibition in vivo at 3 mg/kg: 91%
2 h, 3 mg/kg I.V., AII 0.1 mcg/kg IV, 120 min post dose
  inhibition in vivo at 3 mg/kg: 81%
2 h, 3 mg/kg I.V., AII 0.5 mcg/kg IV, 120 min post dose
  inhibition in vivo at 3 mg/kg: 86%
3 h, 3 mg/kg I.V., AII 0.05 mcg/kg IV, 180 min post dose
  inhibition in vivo at 3 mg/kg: 79%
3 h, 3 mg/kg I.V., AII 0.1 mcg/kg IV, 180 min post dose
  inhibition in vivo at 3 mg/kg: 80%
4 h, 3 mg/kg I.V., AII 0.05 mcg/kg IV, 240 min post dose
  inhibition in vivo at 3 mg/kg: 51%
4 h, 3 mg/kg I.V., AII 0.1 mcg/kg IV, 240 min post dose
  inhibition in vivo at 3 mg/kg: 77%
5 h, 3 mg/kg I.V., AII 0.05 mcg/kg IV, 300 min post dose
  inhibition in vivo at 3 mg/kg: 79%
5 h, 3 mg/kg I.V., AII 0.1 mcg/kg IV, 300 min post dose
  inhibition in vivo at 3 mg/kg: 66%
[…], 3 mg/kg I.V., AII 0.05 mcg/kg IV, 90 min post dose
  inhibition in vivo at 3 mg/kg: 79%
[…], 3 mg/kg I.V., AII 0.1 mcg/kg IV, 90 min post dose
  inhibition in vivo at 3 mg/kg: 86%
0.5 h, 5 mg/kg P.O., AII 0.05 mcg/kg IV, 30 min post dose
  inhibition in vivo at 5 mg/kg: 54%
0.5 h, 5 mg/kg P.O., AII 0.1 mcg/kg IV, 30 min post dose
  inhibition in vivo at 5 mg/kg: 25%
1 h, 5 mg/kg P.O., AII 0.05 mcg/kg IV, 60 min post dose
  inhibition in vivo at 5 mg/kg: 43%
1 h, 5 mg/kg P.O., AII 0.1 mcg/kg IV, 60 min post dose
  inhibition in vivo at 5 mg/kg: 36%
2 h, 5 mg/kg P.O., AII 0.05 mcg/kg IV, 120 min post dose
  inhibition in vivo at 5 mg/kg: 38%
2 h, 5 mg/kg P.O., AII 0.1 mcg/kg IV, 120 min post dose
  inhibition in vivo at 5 mg/kg: 45%
3 h, 5 mg/kg P.O., AII 0.05 mcg/kg IV, 180 min post dose
  inhibition in vivo at 5 mg/kg: 46%
3 h, 5 mg/kg P.O., AII 0.1 mcg/kg IV, 180 min post dose
  inhibition in vivo at 5 mg/kg: 34%
[…], 5 mg/kg P.O., AII 0.1 mcg/kg IV, 90 min post dose
  inhibition in vivo at 5 mg/kg: 40%
[…], 5 mg/kg P.O., AII 0.5 mcg/kg IV, 90 min post dose
  inhibition in vivo at 5 mg/kg: 38%
